Assay results taken from PubChem BioAssay (NCI).
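Values below derive from 48-hour exposures of cells grown in 96-well plates, with endpoints linearly interpolated between the two concentrations bracketing the appropriate inhibition level. TGI: total growth inhibition.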

How the values were obtained:
Assay in all cases: NCI-60 cell line screen, 48 h
[1] = system: 786-0 renal
[2] = system: A498 renal
[3] = system: A549 NSCLC
[4] = system: ACHN renal
[5] = system: BT-549 breast
[6] = system: CCRF-CEM leukemia
[7] = system: COLO 205 colon
[8] = system: DU-145 prostate
[9] = system: EKVX NSCLC
[10] = system: HCC-2998 colon
[11] = system: HCT-116 colon
[12] = system: HCT-15 colon
[13] = system: HL-60(TB) leukemia
[14] = system: HOP-62 NSCLC
[15] = system: HOP-92 NSCLC
[16] = system: HS 578T breast
[17] = system: HT29 colon
[18] = system: IGROV1 ovarian
[19] = system: K-562 leukemia
[20] = system: KM12 colon
[21] = system: M14 melanoma
[22] = system: MALME-3M melanoma
[23] = system: MCF7 breast
[24] = system: MDA-MB-231 breast
[25] = system: MDA-MB-435
[26] = system: MDA-N
[27] = system: MOLT-4 leukemia
[28] = system: NCI-H226 lung
[29] = system: NCI-H23 lung
[30] = system: NCI-H460 lung
[31] = system: NCI-H522 lung
[32] = system: NCI/ADR-RES ovarian
[33] = system: OVCAR-3 ovarian
[34] = system: OVCAR-4 ovarian
[35] = system: OVCAR-5 ovarian
[36] = system: OVCAR-8 ovarian
[37] = system: PC-3 prostate
[38] = system: RPMI-8226 leukemia
[39] = system: RXF 393 renal
[40] = system: SF-268 CNS
[41] = system: SF-295 CNS
[42] = system: SF-539 CNS
[43] = system: SK-MEL-2 melanoma
[44] = system: SK-MEL-28 melanoma
[45] = system: SK-MEL-5 melanoma
[46] = system: SK-OV-3 ovarian
[47] = system: SN12C renal
[48] = system: SNB-19 CNS
[49] = system: SNB-75 CNS
[50] = system: SW-620 colon
[51] = system: T-47D breast
[52] = system: TK-10 renal
[53] = system: U251 CNS
[54] = system: UACC-257 melanoma
[55] = system: UACC-62 melanoma
[56] = system: UO-31 renal
[57] = system: CAKI-1 renal
[58] = system: LOX IMVI melanoma

Measured: TGI

CCN1CSC(=S)N(CC)C1
73.9 µM: [24]
71.1 µM: [14]
47.4 µM: [13]
76 µM: [42]
not listed: [57] | [58]
> 100 µM: all other assays above

Cc1sc2ccccc2[n+]1CCC(=O)O
29.8 µM: [13]
not listed: [6] | [10] | [27] | [56]
> 100 µM: all other assays above
